Results from patent publication EP3473709B1, “DNA VECTOR CONTAINING A GENE ENCODING AN EQUINE BUTYRYLCHOLINESTERASE, FOR TRANSFORMATION AND INTEGRATION INTO LEISHMANIA TARENTOLAE CHROMOSOME” (priority 2017, dated 2019).

Columns and labels:
[1] = biological target: recombinant equine BChE (butyrylcholinesterase), truncated version devoid of the tetramerization domain, GA-BChE-His, Seq.2, expressed in Leishmania tarentolae (Equus caballus, UniProt Q9N1N9); assay: Ellman's method enzymatic activity test (hydrolysis of S-butyrylthiocholine iodide, DTNB, absorbance at 412 nm)
CCCC(=O)SCC[N+](C)(C)C = assay: purified protein, by the assay type; conditions: pH 7.4; 25.0 °C

Compound | BChE activity in the presence of different concentrations of methylene blue [1] | Km (CCCC(=O)SCC[N+](C)(C)C) [µM]
CN(C)c1ccc2nc3ccc(=[N+](C)C)cc-3sc2c1 [methylene blue] | inhibited | 
recombinant equine BChE (butyrylcholinesterase), truncated version devoid of the tetramerization domain, GA-BChE-His, Seq.2, expressed in Leishmania tarentolae T7-TR (Equus caballus) |  | 20
